Experimental data taken from patent US12509444B2, “Compounds and methods for CD73 modulation and indications therefor” (Plexxikon Inc., priority 2019, dated 2025).

How the values were obtained:
human CD73 = biological target: T1, human CD73 (Homo sapiens, UniProt P21589); test: Inhibitor activity against CD73 in cell based assay (CD73 expressing CHO-K1 cells); conditions: CHO-K1 cells expressing human CD73, 150 μM AMP, 4 hours of incubation; read-out: CHO-K1 CELL VARIANT: CD73 IC50
T1 construct: expressed in transfected cells
T1 sequence (P21589 27-549): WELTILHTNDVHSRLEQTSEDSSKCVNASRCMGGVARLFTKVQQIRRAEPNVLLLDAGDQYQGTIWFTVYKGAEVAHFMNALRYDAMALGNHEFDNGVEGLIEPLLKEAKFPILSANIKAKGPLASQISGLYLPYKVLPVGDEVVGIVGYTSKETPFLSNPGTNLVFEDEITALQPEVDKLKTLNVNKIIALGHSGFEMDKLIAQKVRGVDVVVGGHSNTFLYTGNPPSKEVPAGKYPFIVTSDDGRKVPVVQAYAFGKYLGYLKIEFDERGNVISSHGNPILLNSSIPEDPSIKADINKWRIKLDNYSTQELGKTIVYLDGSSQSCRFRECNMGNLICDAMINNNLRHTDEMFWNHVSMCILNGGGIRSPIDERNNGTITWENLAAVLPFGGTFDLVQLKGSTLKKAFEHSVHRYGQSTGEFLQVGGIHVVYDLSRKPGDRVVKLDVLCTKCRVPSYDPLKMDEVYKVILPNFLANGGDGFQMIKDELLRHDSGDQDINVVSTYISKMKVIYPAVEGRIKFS
Method in brief: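 Residual supernatant AMP was quantified via CellTiter-Glo luminescence (1 μM ATP added, 30 min, room temperature) after a 4 h exposure of human CD73-expressing CHO-K1 cells to 150 μM AMP plus compound, top final 10 μM, 8 points. IC50 came from nonlinear regression of percent inhibition.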

[1] = biological target: T2, Human CD73 (amino acid residues 27-549) (Homo sapiens, UniProt P21589); test: CD73 enzymatic assay (luciferase-based indirect assay, CellTiter-Glo); format: biochemical; conditions: 0.4 nM CD73, 150 μM AMP, 1 hour at room temperature
T2 construct: Human CD73 (amino acid residues 27-549); His tag (N); made in house; host or cells: E. coli
T2 sequence (P21589 27-549): T1 sequence (P21589 27-549)
Method in brief: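 Residual AMP inhibits luciferase, so luminescence reports CD73 turnover; read with CellTiter-Glo 2.0 plus 1 μM final ATP, 30 min. Reaction used 0.4 nM N-His CD73 (27-549, E. coli), 150 μM AMP, HEPES pH 7.4 with Tween 20, 1 h at room temperature. IC50 fitted by nonlinear regression.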

Row | SMILES | IC50 (human CD73) | IC50 [1]
1 | O=C(N[C@H]1CC[C@@H](NC(=O)C2CCC2)CC1)O[C@@H]1CCN(c2cn[nH]c(=O)c2Cl)C1 [P-0290, (R)-1-(5-chloro-6-oxo-1,6-dihydropyridazin-4-yl)pyrrolidin-3-yl ((1s,4S)-4-(cyclobutanecarboxamido)cyclohexyl)carbamate] | 0.001 to 10 µM | 0.001 to 10 µM
2 | O=C(N[C@H]1CC[C@H](NS(=O)(=O)C2CCC2)CC1)O[C@@H]1CCN(c2cn[nH]c(=O)c2Cl)C1 [P-0291, (R)-1-(5-chloro-6-oxo-1,6-dihydropyridazin-4-yl)pyrrolidin-3-yl ((1r,4R)-4-(cyclobutanesulfonamido)cyclohexyl)carbamate] | 0.001 to 10 µM | 0.001 to 10 µM
3 | O=C(N[C@H]1CC[C@H](NS(=O)(=O)c2ccc(Cl)cc2)CC1)O[C@@H]1CCN(c2cn[nH]c(=O)c2Cl)C1 [P-0292, (R)-1-(5-chloro-6-oxo-1,6-dihydropyridazin-4-yl)pyrrolidin-3-yl ((1r,4R)-4-((4-chlorophenyl)sulfonamido)cyclohexyl)carbamate] | 0.001 to 10 µM | 0.001 to 10 µM
4 | Cc1ccc(S(=O)(=O)N[C@H]2CC[C@H](NC(=O)O[C@@H]3CCN(c4cn[nH]c(=O)c4Cl)C3)CC2)cc1 [P-0293, (R)-1-(5-chloro-6-oxo-1,6-dihydropyridazin-4-yl)pyrrolidin-3-yl ((1r,4R)-4-((4-methylphenyl)sulfonamido)cyclohexyl)carbamate] | 0.001 to 10 µM | 0.001 to 10 µM
5 | O=C(N[C@H]1CC[C@H](NS(=O)(=O)c2c(F)cccc2F)CC1)O[C@@H]1CCN(c2cn[nH]c(=O)c2Cl)C1 [P-0297, (R)-1-(5-chloro-6-oxo-1,6-dihydropyridazin-4-yl)pyrrolidin-3-yl ((1r,4R)-4-((2,6-difluorophenyl)sulfonamido)cyclohexyl)carbamate] | 0.001 to 10 µM | 0.001 to 10 µM
6 | O=C(N[C@H]1CC[C@H](NS(=O)(=O)c2cc(F)ccc2F)CC1)O[C@@H]1CCN(c2cn[nH]c(=O)c2Cl)C1 [P-0298, (R)-1-(5-chloro-6-oxo-1,6-dihydropyridazin-4-yl)pyrrolidin-3-yl ((1r,4R)-4-((2,5-difluorophenyl)sulfonamido)cyclohexyl)carbamate] | 0.001 to 10 µM | 0.001 to 10 µM
7 | O=C(N[C@H]1CC[C@H](NS(=O)(=O)c2ccsc2)CC1)O[C@@H]1CCN(c2cn[nH]c(=O)c2Cl)C1 [P-0299, (R)-1-(5-chloro-6-oxo-1,6-dihydropyridazin-4-yl)pyrrolidin-3-yl ((1r,4R)-4-(thiophene-3-sulfonamido)cyclohexyl) carbamate] | 0.001 to 10 µM | 0.001 to 10 µM
8 | O=C(N[C@H]1CC[C@H](NS(=O)(=O)c2cccs2)CC1)O[C@@H]1CCN(c2cn[nH]c(=O)c2Cl)C1 [P-0300, (R)-1-(5-chloro-6-oxo-1,6-dihydropyridazin-4-yl)pyrrolidin-3-yl ((1r,4R)-4-(thiophene-2-sulfonamido)cyclohexyl) carbamate] | 0.001 to 10 µM | 0.001 to 10 µM
9 | Cc1noc(C)c1S(=O)(=O)N[C@H]1CC[C@H](NC(=O)O[C@@H]2CCN(c3cn[nH]c(=O)c3Cl)C2)CC1 [P-0302, (R)-1-(5-chloro-6-oxo-1,6-dihydropyridazin-4-yl)pyrrolidin-3-yl ((1r,4R)-4-((3,5-dimethylisoxazole)-4-sulfonamido)cyclohexyl) carbamate] | 0.001 to 10 µM | 0.001 to 10 µM
10 | O=C(N[C@H]1CC[C@H](NS(=O)(=O)CCC(F)(F)F)CC1)O[C@@H]1CCN(c2cn[nH]c(=O)c2Cl)C1 [P-0304, (R)-1-(5-chloro-6-oxo-1,6-dihydropyridazin-4-yl)pyrrolidin-3-yl ((1r,4R)-4-((3,3,3-trifluoropropyl)sulfonamido)cyclohexyl)carbamate] | 0.001 to 10 µM | 0.001 to 10 µM
11 | O=C(N[C@H]1CC[C@H](NS(=O)(=O)CC(F)(F)F)CC1)O[C@@H]1CCN(c2cn[nH]c(=O)c2Cl)C1 [P-0305, (R)-1-(5-chloro-6-oxo-1,6-dihydropyridazin-4-yl)pyrrolidin-3-yl ((1r,4R)-4-((2,2,2-trifluoroethyl)sulfonamido)cyclohexyl)carbamate] | 0.001 to 10 µM | 0.001 to 10 µM
12 | O=C(N[C@H]1CC[C@H](NS(=O)(=O)Cc2ccccc2)CC1)O[C@@H]1CCN(c2cn[nH]c(=O)c2Cl)C1 [P-0306, (R)-1-(5-chloro-6-oxo-1,6-dihydropyridazin-4-yl)pyrrolidin-3-yl ((1r,4R)-4-((phenylmethyl)sulfonamido)cyclohexyl)carbamate] | 0.001 to 10 µM | 0.001 to 10 µM
13 | N#CCS(=O)(=O)N[C@H]1CC[C@H](NC(=O)O[C@@H]2CCN(c3cn[nH]c(=O)c3Cl)C2)CC1 [P-0307, (R)-1-(5-chloro-6-oxo-1,6-dihydropyridazin-4-yl)pyrrolidin-3-yl ((1r,4R)-4-((cyanomethyl)sulfonamido)cyclohexyl)carbamate] | 0.001 to 10 µM | 0.001 to 10 µM
14 | CNS(=O)(=O)N[C@H]1CC[C@H](NC(=O)O[C@@H]2CCN(c3cn[nH]c(=O)c3Cl)C2)CC1 [P-0312, (R)-1-(5-chloro-6-oxo-1,6-dihydropyridazin-4-yl)pyrrolidin-3-yl ((1r,4R)-4-((N-methylsulfamoyl)amino)cyclohexyl)carbamate] | 0.001 to 10 µM | 0.001 to 10 µM

Results, then the molecule that gave them:

Row | IC50 (human CD73) | IC50 [1] | SMILES
15 | 0.001 to 10 µM | 0.001 to 10 µM | O=C(N[C@H]1CC[C@H](NS(=O)(=O)c2cccc(F)c2)CC1)O[C@@H]1CCN(c2cn[nH]c(=O)c2Cl)C1 [P-0294, (R)-1-(5-chloro-6-oxo-1,6-dihydropyridazin-4-yl)pyrrolidin-3-yl ((1r,4R)-4-((3-fluorophenyl)sulfonamido)cyclohexyl)carbamate]
16 | 0.001 to 10 µM | 0.001 to 10 µM | O=C(N[C@H]1CC[C@H](NS(=O)(=O)c2cccnc2)CC1)O[C@@H]1CCN(c2cn[nH]c(=O)c2Cl)C1 [P-0295, (R)-1-(5-chloro-6-oxo-1,6-dihydropyridazin-4-yl)pyrrolidin-3-yl ((1r,4R)-4-(pyridine-3-sulfonamido)cyclohexyl) carbamate]
17 | 0.001 to 10 µM | 0.001 to 10 µM | O=C(N[C@H]1CC[C@H](NS(=O)(=O)c2ccc3ncsc3c2)CC1)O[C@@H]1CCN(c2cn[nH]c(=O)c2Cl)C1 [P-0296, (R)-1-(5-chloro-6-oxo-1,6-dihydropyridazin-4-yl)pyrrolidin-3-yl ((1r,4R)-4-(benzo[d]thiazole-6-sulfonamido)cyclohexyl) carbamate]
18 | 0.001 to 10 µM | 0.001 to 10 µM | O=C(N[C@H]1CC[C@H](NS(=O)(=O)c2ccc(Cl)s2)CC1)O[C@@H]1CCN(c2cn[nH]c(=O)c2Cl)C1 [P-0301, (R)-1-(5-chloro-6-oxo-1,6-dihydropyridazin-4-yl)pyrrolidin-3-yl ((1r,4R)-4-((5-chlorothiophene)-2-sulfonamido)cyclohexyl) carbamate]
19 | 0.001 to 10 µM | 0.001 to 10 µM | COCCS(=O)(=O)N[C@H]1CC[C@H](NC(=O)O[C@@H]2CCN(c3cn[nH]c(=O)c3Cl)C2)CC1 [P-0303, (R)-1-(5-chloro-6-oxo-1,6-dihydropyridazin-4-yl)pyrrolidin-3-yl ((1r,4R)-4-((2-methoxyethyl)sulfonamido)cyclohexyl)carbamate]
20 | 0.001 to 10 µM | 0.001 to 10 µM | C=CS(=O)(=O)N[C@H]1CC[C@H](NC(=O)O[C@@H]2CCN(c3cn[nH]c(=O)c3Cl)C2)CC1 [P-0308, (R)-1-(5-chloro-6-oxo-1,6-dihydropyridazin-4-yl)pyrrolidin-3-yl ((1r,4R)-4-(vinylsulfonamido)cyclohexyl) carbamate]
21 | 0.001 to 10 µM | 0.001 to 10 µM | O=C(N[C@H]1CC[C@H](NS(=O)(=O)c2c[nH]cn2)CC1)O[C@@H]1CCN(c2cn[nH]c(=O)c2Cl)C1 [P-0309, (R)-1-(5-chloro-6-oxo-1,6-dihydropyridazin-4-yl)pyrrolidin-3-yl ((1r,4R)-4-(1H-imidazole-4-sulfonamido)cyclohexyl) carbamate]
22 | 0.001 to 10 µM | 0.001 to 10 µM | CN1CCN(S(=O)(=O)N[C@H]2CC[C@H](NC(=O)O[C@@H]3CCN(c4cn[nH]c(=O)c4Cl)C3)CC2)CC1 [P-0310, (R)-1-(5-chloro-6-oxo-1,6-dihydropyridazin-4-yl)pyrrolidin-3-yl ((1r,4R)-4-((4-methylpiperazine)-1-sulfonamido)cyclohexyl) carbamate]
23 | 0.001 to 10 µM | 0.001 to 10 µM | CC(C)NS(=O)(=O)N[C@H]1CC[C@H](NC(=O)O[C@@H]2CCN(c3cn[nH]c(=O)c3Cl)C2)CC1 [P-0311, (R)-1-(5-chloro-6-oxo-1,6-dihydropyridazin-4-yl)pyrrolidin-3-yl ((1r,4R)-4-((N-isopropylsulfamoyl)amino)cyclohexyl)carbamate]
